The source of these data is paper PMC7910296, “Phosphorescent Ir(III) complexes conjugated with oligoarginine peptides serve as optical probes for in vivo microvascular imaging” (Scientific Reports, 2021).

In one data set the test system is vascular endothelium. The experiment in a line: In vivo luminescence intensity and lifetime imaging after intravenous administration.
The nature of data set [1]: Phosphorescence quantum yield (absolute photoluminescence quantum yield system). In kind it is physicochemical. The note with it: room temperature. On the procedure:
(§1) Phosphorescence lifetimes were measured with a time-correlated single-photon counting fluorimeter (Quantaurus-Tau C11367G, Hamamatsu Photonics). A laser diode (M12488-35, Hamamatsu Photonics; 481 nm, pulse width 70 ps) was used as the excitation light source. The temperature of the sample solution was controlled by circulating water through a jacket cuvette holder from a temperature controlled bath (RTE7, Neslab). Phosphorescence quantum yields were determined on an absolute photoluminescence quantum yield measurement system (C9920-02, Hamamatsu Photonics) consisting of a Xe arc lamp, a monochromator, an integrating sphere, and a multichannel detector[41].

Data set [2] can be described thus: Water solubility / aggregate formation in aqueous solution. In kind it is physicochemical. An excerpt:
Ir(III) complexes BTQ-Rn (n = 4, 8, 12, 16) with different lengths of arginine peptides in the ligand (Fig. 1) were obtained by chemical synthesis, including solid-phase synthesis of the peptides. The synthetic details and characterization of BTQ-Rn are described in Supplementary Information. We first examined the spectral and photophysical properties of the synthesized BTQ-Rn (n = 4, 8, 12, 16) in MeCN and Tris–HCl buffer (pH 7.0) and compared them to the parent complex BTQphen. Figure 2A,B show the absorption and emission spectra of BTQphen and BTQ-R12 (a representative BTQ-Rn) in MeCN. […] The first absorption band of BTQ-R12, which has a molar absorption coefficient of 7600 mol^−1 dm^3 cm^−1 at 496 nm, can be assigned to the singlet metal-to-ligand charge transfer (^1MLCT) transition. Emissions appear in the red to near-infrared region, with the maximum at around 660 nm, and show a very large Stokes shift. The emission decay profiles follow single-exponential functions, with lifetimes of 5.7 μs for BTQphen and 5.9 μs for BTQ-R12 in deaerated MeCN, and 0.28 μs for BTQphen and BTQ-R12 in aerated MeCN (Table 1). The extremely long lifetimes in deaerated solution and significant quenching by dissolved oxygen indicate that emission is due to phosphorescence. […]

The nature of data set [3]: Absorption and emission spectra. Type of data set: physicochemical. The following applies: MeCN with 1% DMSO, room temperature. On the procedure:
Absorption and emission spectra were recorded on a UV–Vis spectrophotometer (Ubest V-550, JASCO) and a photonic multichannel analyzer PMA-12 (C11027-01, Hamamatsu Photonics) equipped with a monochromatized Xe arc lamp, respectively. The emission spectra were fully corrected for spectral sensitivity.

Data set [4] in a line: Phosphorescence lifetime in solution (time-correlated single-photon counting). Type of data set: physicochemical. The following applies: 37 °C. On the procedure: as §1

Consider `CCN(CC)c1ccc2cc3cc(-c4nc5ccccc5s4)c(=O)oc3cc2c1` [PC6S, reference compound], for which the localization in liver entry with vascular endothelium (living mice, PC6S 50 nmol iv, fluorescence intensity images of liver) is “taken up into hepatocytes and likely accumulates in LDs and the ER”.

In the case of (btq)2Ir(phen-pipe) [BTQphen], in data set [1] (aerated MeCN), the “Φp, phosphorescence quantum yield” value was found to be 0.015. The “Φp0, phosphorescence quantum yield” value in data set [1] (deaerated MeCN) was determined as 0.32. In addition, the aggregate formation result in data set [2] (aqueous solution / Tris–HCl buffer (pH 7.0), from spectra and single-exponential decay) is on record as “forms aggregates”. In addition, the water solubility result in data set [2] (aqueous solution, in words) is “extremely low water solubility”. Also, the emission maximum result in data set [3] is “around 660 nm”. For the same compound, the “τp, phosphorescence lifetime” value in data set [4] (aerated MeCN) is listed as 0.28 µs. Besides, the “τp0, phosphorescence lifetime” value in data set [4] (deaerated MeCN) turned out to be 5.7 µs. Also, the “localization in renal cortex” value in the data set with vascular endothelium (mouse kidney, about 1 h after intravenous administration (100 nmol; FITC-lectin 1 mg/mL, 50 μL), luminescence intensity images) is on record as “localized in tubular cells rather than in capillaries”.
